target: T1, SHP2 (Homo sapiens, UniProt Q06124); experiment: SHP2 allosteric inhibitor enzyme activity assay (DiFMUP fluorescence); type: biochemical; settings: class symbols
T1 sequence (Q06124 1-593): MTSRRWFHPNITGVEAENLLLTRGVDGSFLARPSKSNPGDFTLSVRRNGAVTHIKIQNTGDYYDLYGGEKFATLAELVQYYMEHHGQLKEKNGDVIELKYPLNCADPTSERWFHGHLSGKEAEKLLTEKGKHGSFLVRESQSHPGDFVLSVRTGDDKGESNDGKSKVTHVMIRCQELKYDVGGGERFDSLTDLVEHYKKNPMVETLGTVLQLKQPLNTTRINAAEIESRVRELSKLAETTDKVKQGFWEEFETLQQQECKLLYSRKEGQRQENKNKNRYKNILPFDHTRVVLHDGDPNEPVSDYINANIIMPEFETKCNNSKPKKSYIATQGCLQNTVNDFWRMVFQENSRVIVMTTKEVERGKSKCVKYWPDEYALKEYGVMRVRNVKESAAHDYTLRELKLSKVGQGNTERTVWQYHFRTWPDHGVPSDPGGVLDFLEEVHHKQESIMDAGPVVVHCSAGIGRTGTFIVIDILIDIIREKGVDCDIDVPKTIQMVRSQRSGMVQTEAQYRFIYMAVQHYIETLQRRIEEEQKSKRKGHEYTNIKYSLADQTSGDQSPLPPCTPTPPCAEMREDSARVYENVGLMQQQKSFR
Procedure, shortened: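 SHP2 activated by 0.5 μM IRS1_pY1172(dPEG8)pY1222 peptide, 0.2 ng enzyme per well, 1 h at room temperature with compound (1 μM top, 3-fold series), then DiFMUP substrate 1 h. Buffer: 60 mM HEPES, 75 mM NaCl, 75 mM KCl, 0.05% BRIJ-35, 1 mM EDTA, 5 mM DTT. Fluorescence ex 340/em 450 nm; IC50 by variable-slope fit.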

SMILES | IC50
N[C@@H]1COCC12CCN(c1nc3[nH]nc(C4(c5nc6ccccc6[nH]5)CC4)c3c(=O)[nH]1)CC2 [Example 283, (S)-3-(1-(1H-benzo[d]imidazol-2-yl)cyclopropyl)-6-(4-amino-2-oxa-8-azaspiro[4.5]decan-8-yl)-1,5-dihydro-4H-pyrazolo[3,4-d]pyrimidin-4-one] | > 0.06 µM
Cc1csc(C2(c3n[nH]c4nc(N5CCC6(CC5)CO[C@@H](C)[C@H]6N)[nH]c(=O)c34)CC2)n1 [Example 318, 6-((3S,4S)-4-amino-3-methyl-2-oxa-8-azaspiro[4.5]decan-8-yl)-3-(1-(4-methylthiazol-2-yl)cyclopropyl)-1,5-dihydro-4H-pyrazolo[3,4-d]pyrimidin-4-one] | 0.02 to 0.06 µM
N[C@@H]1c2ccccc2CC12CCN(c1nc3[nH]nc(C4=CS(=O)(=O)Nc5ccccc54)c3c(=O)[nH]1)CC2 [Example 183, (S)-6-(1-amino-1,3-dihydrospiro[indene-2,4′-piperidin]-1′-yl)-3-(2,2-dioxido-1H-benzo[c][1,2]thiazin-4-yl)-1,5-dihydro-4H-pyrazolo[3,4-d]pyrimidin-4-one] | ≤ 0.02 µM
Cc1cccc(C2(c3n[nH]c4nc(N5CCC6(CC5)CO[C@@H](C)[C@H]6N)[nH]c(=O)c34)CC2)c1 [Example 301, 6-((3S,4S)-4-amino-3-methyl-2-oxa-8-azaspiro[4.5]decan-8-yl)-3-(1-(m-tolyl)cyclopropyl)-1,5-dihydro-4H-pyrazolo[3,4-d]pyrimidin-4-one] | 0.02 to 0.06 µM
C[C@@H]1OCC2(CCN(c3nc4[nH]nc(C5(c6ccccc6)CC5)c4c(=O)[nH]3)CC2)[C@@H]1N [Example 270, 6-((3S,4S)-4-amino-3-methyl-2-oxa-8-azaspiro[4.5]decan-8-yl)-3-(1-phenylcyclopropyl)-1,5-dihydro-4H-pyrazolo[3,4-d]pyrimidin-4-one] | 0.02 to 0.06 µM
C[C@@H]1OCC2(CCN(c3nc4[nH]nc(C5(c6cccc(Cl)c6Cl)CC5)c4c(=O)[nH]3)CC2)[C@@H]1N [Example 309, 6-((3S,4S)-4-amino-3-methyl-2-oxa-8-azaspiro[4.5]decan-8-yl)-3-(1-(2,3-dichlorophenyl)cyclopropyl)-1,5-dihydro-4H-pyrazolo[3,4-d]pyrimidin-4-one] | 0.02 to 0.06 µM
C[C@@H]1OCC2(CCN(c3nc4[nH]nc(C5(c6ccc(OC(F)(F)F)cc6)CC5)c4c(=O)[nH]3)CC2)[C@@H]1N [Example 307, 6-((3S,4S)-4-amino-3-methyl-2-oxa-8-azaspiro[4.5]decan-8-yl)-3-(1-(4-(trifluoromethoxy)phenyl)cyclopropyl)-1,5-dihydro-4H-pyrazolo[3,4-d]pyrimidin-4-one] | 0.02 to 0.06 µM
C[C@@H]1OCC2(CCN(c3ncc(C4(c5ccccc5)CC4)nc3C(N)=O)CC2)[C@@H]1N [Example 259, 3-((3S,4S)-4-amino-3-methyl-2-oxa-8-azaspiro[4.5]decan-8-yl)-6-(1-phenylcyclopropyl)pyrazine-2-carboxamide] | > 0.06 µM
N[C@@H]1c2ccccc2CC12CCN(c1nc3[nH]nc(C4=CCC(F)(F)c5ncccc54)c3c(=O)[nH]1)CC2 [Example 169, (S)-6-(1-amino-1,3-dihydrospiro[indene-2,4′-piperidin]-1′-yl)-3-(8,8-difluoro-7,8-dihydroquinolin-5-yl)-1,5-dihydro-4H-pyrazolo[3,4-d]pyrimidin-4-one] | ≤ 0.02 µM
Cc1ccccc1C1(c2n[nH]c3nc(N4CCC5(CC4)CO[C@@H](C)[C@H]5N)[nH]c(=O)c23)CC1 [Example 302, 6-((3S,4S)-4-amino-3-methyl-2-oxa-8-azaspiro[4.5]decan-8-yl)-3-(1-(o-tolyl)cyclopropyl)-1,5-dihydro-4H-pyrazolo[3,4-d]pyrimidin-4-one] | 0.02 to 0.06 µM

Second part, the molecule after the results:

IC50 | SMILES
≤ 0.02 µM | N[C@@H]1c2ccccc2CC12CCN(c1nc3[nH]nc(C4(c5ccc[s+]5[O-])CC4)c3c(=O)[nH]1)CC2 (stereo partly drawn) [Example 242, 6-((S)-1-amino-1,3-dihydrospiro[indene-2,4′-piperidin]-1′-yl)-3-(1-(1-oxidothiophen-2-yl)cyclopropyl)-1,5-dihydro-4H-pyrazolo[3,4-d]pyrimidin-4-one]
≤ 0.02 µM | N[C@@H]1c2ccccc2CC12CCN(c1nc3[nH]nc(C4(c5nccs5)CC4)c3c(=O)[nH]1)CC2 [Example 84, (S)-6-(1-amino-1,3-dihydrospiro[indene-2,4′-piperidin]-1′-yl)-3-(1-(thiazol-2-yl)cyclopropyl)-1,5-dihydro-4H-pyrazolo[3,4-d]pyrimidin-4-one]
≤ 0.02 µM | N[C@@H]1c2ccccc2CC12CCN(c1nc3[nH]nc(C4(c5ccco5)CC4)c3c(=O)[nH]1)CC2 [Example 256, (S)-6-(1-amino-1,3-dihydrospiro[indene-2,4′-piperidin]-1′-yl)-3-(1-(furan-2-yl)cyclopropyl)-1,5-dihydro-4H-pyrazolo[3,4-d]pyrimidin-4-one]
0.02 to 0.06 µM | COc1ccccc1C1(c2n[nH]c3nc(N4CCC5(CC4)Cc4ccccc4[C@H]5N)[nH]c(=O)c23)CC12CCCC2 (stereo partly drawn) [Example 101, 6-((S)-1-amino-1,3-dihydrospiro[indene-2,4′-piperidin]-1′-yl)-3-(1-(2-methoxyphenyl)spiro[2.4]heptan-1-yl)-1,5-dihydro-4H-pyrazolo[3,4-d]pyrimidin-4-one]
≤ 0.02 µM | N[C@@H]1c2ccccc2CC12CCN(c1nc3[nH]nc(C4(c5cccc(Cl)c5Cl)CC4)c3c(=O)[nH]1)CC2 [Example 49, (S)-6-(1-amino-1,3-dihydrospiro[indene-2,4′-piperidin]-1′-yl)-3-(1-(2,3-dichlorophenyl)cyclopropyl)-1,5-dihydro-4H-pyrazolo[3,4-d]pyrimidin-4-one]
≤ 0.02 µM | Nc1ccccc1C1(c2n[nH]c3nc(N4CCC5(CC4)Cc4ccccc4[C@H]5N)[nH]c(=O)c23)CC1 [Example 22, (S)-6-(1-amino-1,3-dihydrospiro[indene-2,4′-piperidin]-1′-yl)-3-(1-(2-aminophenyl)cyclopropyl)-1,5-dihydro-4H-pyrazolo[3,4-d]pyrimidin-4-one]
≤ 0.02 µM | N#Cc1ccc2c(c1)[C@@H](N)C1(CCN(c3nc4[nH]nc(C5(c6ccccc6)CC5)c4c(=O)[nH]3)CC1)C2 [Example 197, (S)-1-amino-1′-(4-oxo-3-(1-phenylcyclopropyl)-4,5-dihydro-1H-pyrazolo[3,4-d]pyrimidin-6-yl)-1,3-dihydrospiro[indene-2,4′-piperidine]-6-carbonitrile]
≤ 0.02 µM | N[C@@H]1c2ccccc2CC12CCN(c1nc3[nH]nc(C4(c5ccnc(NC6CCC6)c5Cl)CC4)c3c(=O)[nH]1)CC2 [Example 67, (S)-6-(1-amino-1,3-dihydrospiro[indene-2,4′-piperidin]-1′-yl)-3-(1-(3-chloro-2-(cyclobutylamino)pyridin-4-yl)cyclopropyl)-1,5-dihydro-4H-pyrazolo[3,4-d]pyrimidin-4-one]
≤ 0.02 µM | N#Cc1cccc(C2(c3n[nH]c4nc(N5CCC6(CC5)Cc5ccccc5[C@H]6N)[nH]c(=O)c34)CC2)c1 [Example 35, (S)-3-(1-(6-(1-amino-1,3-dihydrospiro[indene-2,4′-piperidin]-1′-yl)-4-oxo-4,5-dihydro-1H-pyrazolo[3,4-d]pyrimidin-3-yl)cyclopropyl)benzonitrile]
0.02 to 0.06 µM | N[C@@H]1c2ccccc2CC12CCN(c1nc3[nH]nc(C4(c5ccnc(N6CCOCC6)c5Cl)CC4)c3c(=O)[nH]1)CC2 [Example 65, (S)-6-(1-amino-1,3-dihydrospiro[indene-2,4′-piperidin]-1′-yl)-3-(1-(3-chloro-2-morpholinopyridin-4-yl)cyclopropyl)-1,5-dihydro-4H-pyrazolo[3,4-d]pyrimidin-4-one]
≤ 0.02 µM | COc1ccc2c(c1)[C@@H](N)C1(CCN(c3nc4[nH]nc(C5(c6ccccc6)CC5)c4c(=O)[nH]3)CC1)C2 [Example 192, (S)-6-(1-amino-6-methoxy-1,3-dihydrospiro[indene-2,4′-piperidin]-1′-yl)-3-(1-phenylcyclopropyl)-1,5-dihydro-4H-pyrazolo[3,4-d]pyrimidin-4-one]
≤ 0.02 µM | N[C@@H]1c2ccccc2CC12CCN(c1nc3[nH]nc(C4(c5nn[nH]n5)CC4)c3c(=O)[nH]1)CC2 [Example 246, (S)-3-(1-(2H-tetrazol-5-yl)cyclopropyl)-6-(1-amino-1,3-dihydrospiro[indene-2,4′-piperidin]-1′-yl)-1,5-dihydro-4H-pyrazolo[3,4-d]pyrimidin-4-one]
0.02 to 0.06 µM | N[C@@H]1c2ccccc2CC12CCN(c1nc3[nH]nc(C4(c5cnn(-c6ccccc6)c5)CC4)c3c(=O)[nH]1)CC2 [Example 56, (S)-6-(1-amino-1,3-dihydrospiro[indene-2,4′-piperidin]-1′-yl)-3-(1-(1-phenyl-1H-pyrazol-4-yl)cyclopropyl)-1,5-dihydro-4H-pyrazolo[3,4-d]pyrimidin-4-one]
≤ 0.02 µM | N[C@@H]1c2ccccc2CC12CCN(c1nc3[nH]nc(C4(c5ccnnc5)CC4)c3c(=O)[nH]1)CC2 [Example 71, (S)-6-(1-amino-1,3-dihydrospiro[indene-2,4′-piperidin]-1′-yl)-3-(1-(pyridazin-4-yl)cyclopropyl)-1,5-dihydro-4H-pyrazolo[3,4-d]pyrimidin-4-one]

Reference: patent US20230192705A1, “SHP2 INHIBITORS, COMPOSITIONS AND USES THEREOF” (Betta Pharmaceuticals Co., Ltd, priority 2020, published 2023)
